Measurements as given in US5891895A, “Hydroxypyridine derivatives their production and use” (Takeda Chemical Industries, Ltd., priority 1996, dated 1999).

How the values were obtained:
rat aorta preparations [1] = test: Vasorelaxant effect on rat aorta preparations: contractions induced by tetraethyl ammonium chloride (TEA) and barium chloride (BaCl2); assay type: cell-based, Male Wistar rats; conditions: TEA (30-45 mM) and BaCl2 (0.3 mM), read-out: constriction inhibitory ratio
Method: (§1) Vasorelaxant effect on rat aorta preparations
Effects on contractions induced by tetraethyl ammonium chloride (TEA) and barium chloride (BaCl2)
(§2) Method: Male Wistar rats (10 to 13 weeks old) were used. After exsanguination, the aorta was isolated. Aortic rings (5 mm long) were prepared and then suspended in a bath filled with oxygenated (95% O2 -5% CO2) Krebs solution (36° C.). One end of each ring preparation was fixed and the other end was connected to a tension transducer (Nihon Kohden), and tension of the ring preparation was measured. After an equilibration period of one hour, TEA (30-45 mM) and BaCl2 (0.3 mM) were added in the bath to produce vasoconstriction. After the contractions reached a steady state (after about 15 min.), each test compound was added and its relaxant effect was investigated.

rat aorta preparations [2] = test: Vasorelaxant effect on rat aorta preparations: constriction induced by potassium chloride (KCl); assay type: cell-based, Male Wistar rats; conditions: KCl (80 mM), read-out: constriction inhibitory ratio
Method: as §2, §1
Effect on constriction induced by potassium chloride (KCl)
Method: This experiment was performed using KCl (80 mM) instead of TEA and BaCl2 used in Experimental Example 1. Apart from this, the procedures were substantially the same as in Experimental Example 1.

coronary blood flow = test: Coronary blood flow-increasing effect in anesthetized dogs (administration into the coronary artery); assay type: in vivo; conditions: 30 μg/dog into the coronary artery, anesthetized beagle dogs
Method: Coronary blood flow-increasing effect in anesthetized dogs (administration into the coronary artery)
Method: After beagle dogs (10 to 12 kg) were anesthetized with pentobarbital, the chest was opened under artificial respiration. A bypass fitted with an electromagnetic flowmeter (Nihon Kohden) was prepared between the left coronary artery and the left carotid artery, and the coronary blood flow was measured. Each test compound was dissolved in 50% polyethylene glycol in physiological saline, 50% DMF in physiological saline or DMF for administration (30 μg/dog) into the coronary artery through the bypass.
Results: The greatest percentage change (% of basal flow) and duration (expressed as half-time (T1/2) in which the effect is reduced to half) are shown in Table 14.

[3] = tested on: spontaneously hypertensive rats (SHR); test: Antihypertensive effect in rats (SHR); assay type: in vivo; conditions: 0.3 mg/kg orally
Method: (§3) Antihypertensive effect in rats
(§4) Method: 23 to 27-week-old spontaneously hypertensive rats (SHR) or normotensive rats (Wistar-Kyoto rats (WKY)) were anesthetized with pentobarbital (60 mg/kg, i.p.). A polyethylene catheter filled with physiological saline containing 20% heparin was inserted into the left femoral artery and left in place. The other end of the catheter was tunneled subcutaneously to the back and fixed there. After one night, the animals were used in the experiment in the fasting state. Blood pressure was recorded on an ink-writing recorder through the arterial catheter via a pressure transducer. Blood pressure was estimated from flood pressure waves recorded on the recorder. After the blood pressure was stabilized, the test compounds (vehicle (0.5% methylcellulose, […]) or Compound 16 (0.3 mg/kg)) were administered orally.
(§5) Results: The changes in blood pressure and heart rate after administration of the test compounds are given as % of pretreatment basal values (percentage changes) in FIGS. 1 and 2. All values are presented as means±standard error.

[4] = tested on: normotensive rats (Wistar-Kyoto rats (WKY)); test: Antihypertensive effect in rats (WKY); assay type: in vivo; conditions: 0.3 mg/kg orally
Method: as §3, §4, §5

SMILES | inhibition at 0.3 µM (rat aorta preparations [1]) | inhibition at 1 µM (rat aorta preparations [1]) | inhibition at 1 µM (rat aorta preparations [2]) | duration (T1/2), half-time in which the effect is reduced to half (coronary blood flow) | greatest percentage change (coronary blood flow) | inhibition at 0.3 µM (rat aorta preparations [2]) | inhibition at 0.1 µM (rat aorta preparations [1]) | inhibition at 0.1 µM (rat aorta preparations [2]) | duration of antihypertensive effect [3] | effect on heart rate [3] | onset of antihypertensive effect after administration [3] | greatest change in blood pressure (antihypertensive effect) ([3]; % of pretreatment basal values) | effect on blood pressure [4] | effect on heart rate [4]
CC(C)(C)O/N=C(/c1ccc(Cl)cc1)c1c(O)ccc[n+]1[O-] [Compound 7, (Z)-2-[α-(t-butoxyimino)-4-chlorobenzyl]-3-hydroxypyridine N-oxide] | 2% | 72% | 0% | 18.6 min | 71 % of basal flow |  |  |  |  |  |  |  |  | 
CC(C)(C)O/N=C(/c1cccc(C(F)(F)F)c1)c1ncccc1O [Compound 21, (Z)-2-[α-(t-butoxyimino)-3-trifluoromethylbenzyl]-3-hydroxypyridine] | 45% | 100% | 8% |  |  | 1% |  |  |  |  |  |  |  | 
CC(C)(C)O/N=C(/c1cccc(Br)c1)c1c(O)ccc[n+]1[O-] [Compound 3, (Z)-2-(3-bromo-α-t-butoxyiminobenzyl)-3-hydroxypyridine 1-oxide] | 47% | 97% | 2% | 24.4 min | 155 % of basal flow | 0% |  |  |  |  |  |  |  | 
CC(C)(C)O/N=C(/c1cc(Cl)cc(Cl)c1)c1ncccc1O [Compound 13, (Z)-2-[α-(t-butoxyimino)-3,5-dichlorobenzyl]-3-hydroxypyridine] | 21% | 53% | 4% |  |  |  |  |  |  |  |  |  |  | 
CC(C)(C)O/N=C(/c1cccc([N+](=O)[O-])c1)c1ncccc1O [Compound 23, (Z)-2-[α-(t-butoxyimino)-3-nitrobenzyl]-3-hydroxypyridine] | 56% | 76% | 0% | 5.3 min | 134 % of basal flow | 0% | 4% |  |  |  |  |  |  | 
CC(C)(C)O/N=C(/c1ccc(Cl)c(Cl)c1)c1c(O)ccc[n+]1[O-] [Compound 11, (Z)-2-[α-(t-butoxyimino)-3,4-dichlorobenzyl]-3-hydroxypyridine N-oxide] | 49% | 63% | 0% | 30.5 min | 66 % of basal flow |  |  |  |  |  |  |  |  | 
CC(C)(C)N/N=C(\c1cccc(Br)c1)c1ncccc1O [Compound 27, (E)-2-(3-bromo-α-t-butylhydrazinobenzyl)-3-hydroxypyridine] | 100% |  |  | 74.6 min | 77 % of basal flow | 0% | 25% | 0% |  |  |  |  |  | 
CC(C)(C)O/N=C(/c1ccc(F)c(Br)c1)c1ncccc1O [Compound 16, (Z)-2-(3-bromo-α-t-butoxyimino-4-fluorobenzyl)-3-hydroxypyridine] |  |  |  | 43.5 min | 136 % of basal flow |  | 87% | 4% | long duration | little effect | 2 h | 18% | no effect | no effect
CC(C)(C)O/N=C(/c1cccc(Br)c1)c1ncccc1O [Compound 1, (Z)-2-(3-bromo-α-t-butoxyiminobenzyl)-3-hydroxypyridine] | 59% |  |  | 6.7 min | 133 % of basal flow | 0% | 57% | 0% |  |  |  |  |  | 
